Source: patent US20070202079A1, “Therapeutic compositions and methods useful in modulating protein tyrosine phosphatases” (priority 2006, published 2007)

Columns and labels:
PTP1B = target: T1, PTP1B (Homo sapiens, UniProt P18031); test: in vitro PTPase assay, GST/PTP1B; assay type: biochemical
T1 construct: purchased Upstate Biotechnology Inc. (Lake Placid, N.Y.)
Method: In vitro PTPase activities were measured using the commercial protein tyrosine phosphatase assay kit (Upstate Biotechnology, Inc. (“UBI”)) following established procedure known to one of skill in the art. This assay measures the in vitro dephosphorylation of a synthetic phosphotyrosine peptide of the sequence Arg-Arg-Leu-Ile-Glu-Asp-Ala-Gle-T- -yr-Ala-Ala-Arg-Gly, wherein the tyrosine is phosphorylated (SEQ ID NO: 3). Briefly, 0.01 μg of GST/PTPase fusion proteins was incubated in 50 μl of Tris buffer (10 mM Tris, pH 7.4) containing different concentrations of inhibitors or chemicals (0-1,000 μg/ml) at 22° C. for 10 minutes, followed by addition of 0.2 mM of the phosphotyrosine peptide and incubation at 22° C. for 18 hours. 100 μl of Malachite Green solution was added and incubated for 5 minutes, and the absorbance at 660 nm was measured after 5 minutes.
In vitro PTPase assays were used to determine the effects of levamisole (Sigma), pentamidine (American Pharmaceutical Partners, Inc.), and ketoconazole (Sigma) on recombinant PTPases, following established procedures (Pathak et al., J. Immunol. 167, 3391 (2001); Pathak et al., Leukemia 16, 2285 (2002), Yi et al., J. Immunol. 169, 5978 (2002)) using a synthetic phosphotyrosine peptide or DiFMUP as the substrate as detailed above in section I.A.2.

Baf3 cells = test: Baf3 cell proliferation assay; assay type: cell-based, murine
Method: (§1) The murine hematopoietic cell line Baf3 was maintained in RPMI 1640 medium supplemented with 10% fetal calf serum (FCS) and murine IL-3 (20 units/ml) as described previously in Damen et al., J. Biol. Chem. 270, 23402 (1995). Human myeloid cell line TF-1 was maintained in RPMI 1640 supplemented with 10% FCS and 40 ng/ml of recombinant human GM-CSF as described previously in Thomassen et al., Clin. Immunol. 95, 85 (2000). For cell proliferation assays, cells were washed in 10% FCS medium twice, resuspended in 10% FCS medium, incubated at 37° C. for 16 hours, and then cultured at 37° C. in 10% FCS medium containing various amounts of cytokines, sodium stibogluconate, or potassium antimonyl tartrate for 3-6 days as indicated. The cell numbers in proliferation assays were determined by an MTT assay or by microscopic cell counting as indicated.

TF-1 cells = test: TF-1 cell proliferation assay; assay type: cell-based, human; details: 50 μg/ml
Method: as §1

[1] = system: WM9 PRL-1R86 transfectant; test: growth of WM9 PRL-1R86 transfectant, MTT; assay type: cell-based, human; details: 50 or 100 μg/ml, 6 days
Method: NIH3T3 (Yi, et al., Blood 85, 87 (1995)), WM9 (Forsberg, et al., Proc. Nat. Acad Sci. USA 90, 393 (1993)), DU145 (Mickey, et al., Cancer Res. 37, 4049 (1977)), LoVo (Drewinko, et al., Cancer Res. 36, 467 (1976)), HEY (Buick, et al., Cancer Res. 45, 3668 (1985)), U251 (Yoshida, et al., Cancer 50, 410 (1982)), A549 (Giard, et al., J. Natl. Cancer Inst. 51, 1417 (1973)) and SK-N-SH (Helson, et al., Cancer Res. 35, 2594 (1975)) cell lines have been described and were cultured in RPMI 1640 supplemented with 10% fetal calf serum (FCS). For measurement of sodium stibogluconate effects on cell growth in vitro, cells were cultured in the absence (−) or presence (+) of various amounts of sodium stibogluconate for 6 days with viable cells quantified by MTT assays (Mosmann, J. Immunol. Methods 65, 55 (1983)). Percentages of growth inhibition by sodium stibogluconate were calculated (.+−.x%).
The effects of sodium stibogluconate on intracellular PTPases were assessed using NIH3T3 or WM9 transfectants. NIH3T3 or WM9 cells were transfected with the pBabepuro vector (V) or pBabepuro expression constructs of Flag-tagged PRLs using Lipofectamine (BRL) following the manufacturer's procedures. […]

Flag-PRL-3 = target: T2, Flag-PRL-3 (Homo sapiens, UniProt O75365); test: immunocomplex PTPase assay, NIH3T3 Flag-PRL-3 transfectants; assay type: cell-based, mouse; details: cells treated 5 min
T2 construct: expressed in transfected cells; host or cells: NIH3T3 (pBabepuro, puromycin-selected)
Method: Immunocomplex PTPase assays were performed to assess the effects of sodium stibogluconate on intracellular PTPases. Cells were untreated or treated with sodium stibogluconate for 5 minutes, washed with fresh medium and then lysed in cold lysis buffer (50 mM Tris, pH 7.4; 150 mM NaCl; 1% NP40; 2 mM PMSF; 20 μg/ml of Aprotinin). The lysates were incubated with an anti-Flag antibody in immunoprecipitation assays. The immunocomplexes were collected with protein G sepharose beads (Pharmacia) and washed in cold lysis buffer for 4 times. […] C. for 18 hrs. 100 μL of malachite green solution (UBI) was added to each reaction prior to measurement of OD660 to quantify the amounts of free phosphate cleaved by the PTPases from the peptide substrate (Pathak et al., J. Immunol. 167, 3391 (2001)). The remaining 10% contents of individual samples were analyzed by SDS-PAGE/Western blotting to quantify the relative amounts of the phosphatase proteins. […]
The effects of sodium stibogluconate on intracellular PTPases were assessed using NIH3T3 or WM9 transfectants. […]

T2 sequence (O75365 whole entry): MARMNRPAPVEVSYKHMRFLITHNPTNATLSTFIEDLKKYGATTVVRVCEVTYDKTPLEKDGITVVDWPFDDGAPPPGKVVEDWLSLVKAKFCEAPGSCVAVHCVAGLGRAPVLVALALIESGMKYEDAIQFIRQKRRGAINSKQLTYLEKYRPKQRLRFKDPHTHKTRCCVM
T1 sequence (P18031 whole entry, species assumed): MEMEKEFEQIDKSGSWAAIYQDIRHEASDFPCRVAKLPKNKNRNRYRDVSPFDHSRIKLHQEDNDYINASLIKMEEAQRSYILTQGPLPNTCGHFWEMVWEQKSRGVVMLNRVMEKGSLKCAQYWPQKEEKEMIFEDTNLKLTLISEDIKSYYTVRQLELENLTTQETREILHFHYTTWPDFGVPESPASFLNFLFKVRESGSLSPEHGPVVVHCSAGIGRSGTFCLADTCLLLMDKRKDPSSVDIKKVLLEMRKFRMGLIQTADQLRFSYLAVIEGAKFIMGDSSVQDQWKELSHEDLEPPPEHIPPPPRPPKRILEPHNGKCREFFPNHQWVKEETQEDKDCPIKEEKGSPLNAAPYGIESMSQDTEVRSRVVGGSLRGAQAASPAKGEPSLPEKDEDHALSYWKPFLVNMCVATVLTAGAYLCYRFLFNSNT

O.O.O.O.O.O.O.O.O.O=C([O-])[C@@H]1[O][Sb]2([O-])([O][Sb]34([OH])[O][C@H]([C@H](O)CO)[C@H]([O]3)[C@H](C(=O)[O-])[O]4)[O][C@H]([C@H](O)CO)[C@@H]1[O]2.[Na+].[Na+].[Na+] [sodium stibogluconate]
inhibition of PTP1B compared with the three drugs (PTP1B): only modestly effective | effect on IL-3-induced Baf3 growth (Baf3 cells; 1,000 μg/ml): suppressed IL-3-induced Baf3 growth | proliferation and viability in the absence of IL-3 (Baf3 cells; day 3 culture): failed to support cell proliferation or maintain cell viability | GM-CSF-induced proliferation of TF-1 cells (TF-1 cells; GM-CSF 5-40 ng/ml): augmented | growth inhibition activity of IFN-alpha on TF-1 cells in presence of drug (TF-1 cells; with GM-CSF and IFN-alpha): enhanced | growth inhibition of R86 cells [1]: only modest growth inhibition | PTPase activity of immunocomplexes from treated Flag-PRL-3 transfectants (Flag-PRL-3): lack of PTPase activity
